Measured values reported in article PMC9862096, “Interaction of a Homologous Series of Amphiphiles with P-glycoprotein in a Membrane Environment—Contributions of Polar and Non-Polar Interactions” (Pharmaceutics, 2023).

Columns and labels:
[1] = Association (partition) of the NBD amphiphiles with native membranes, NBD fluorescence; type: physicochemical, High-Five insect cells; conditions: for LogKP, association with the native membranes: 37 °C, simplified ATPase assay buffer; for KPW→M: aqueous phase to native membrane
Method: The membranes were diluted to the chosen concentration with simplified ATPase assay buffer and warmed to 37 °C. The NBD amphiphiles were added from stocks in DMSO (final DMSO 1% v/v) by squirting the required volume into the membrane solution under gentle vortex. Fluorescence intensity was measured after 15 to 30 min incubation at 37 °C using a Cary Eclipse spectrofluorimeter (Varian, Singapore). The path length of the sample container was selected to guarantee that scattering at the excitation wavelength was smaller than 0.1 while maintaining a good signal/noise ratio (3, 5, or 10 mm).
The increase in fluorescence of the NBD amphiphiles when associated with the model membranes was well described by a simple partition (Equation (S3)). The low affinity of the less lipophilic amphiphiles for the native membranes required the use of high membrane concentrations, and the fluorescence was measured with the plate reader SpectraMax iD5 (Molecular Devices, Berkshire, UK), where the reading setup is not very sensitive to scatter. To guarantee that the high scatter intensity was not leading to artifacts in the measured fluorescence intensity of NBD–C4, titrations of NBD-C6 and NBD–C8 were also performed in the same plate. For these two latter amphiphiles, the results obtained for the partition coefficient were similar to those obtained for experiments with low scatter intensity. A small decrease in the fluorescence intensity from NBD–C8 was nevertheless observed at very high scatter intensities (OD ≥ 0.5), which was used to correct the signal from the less lipophilic amphiphiles, see Supplementary Information (Figure S5 and Equation (S4)). The molar volume considered for the lipid was 0.8 dm^3/mol, and 1.2 g/mL was considered for the density of the membrane proteins.
S3 – Partition of the NBD amphiphiles to lipid bilayers and native membranes The fluorescence increase that accompanies the association of the NBD amphiphiles with the model membra nes was well defined by a simple partition, equation S3. […]
where IfW and If M are respec ti vel y the fluorescence intensity when all fluorescent amphiphile is in the aqueous phase and ass oci ated with the membranes, LbK is the partition co eff icient P between the aqueous and the lipid bilayer, V is the molar vo l u m e of the lipid when in the lipid L bi l ayer, and [L] is the lipid concentration.
To characterize the association of the NBD amphiphiles with the native membranes the whole membrane vo lume was considere d, including the lipid bilayer and the membrane proteins. For the ca se of the less lipophilic amphiphiles NBD‐C4 and NBD‐C6, a sig nif ica nt scatter from the […]
both to the larger size of the vesicles (ca 1 µm diameter, [1]) and to the high refractive index of the native membranes. The magnitude of the scatter effect was quantified through the best fit […]
partition to the membranes at co n ce ntrations where scatter is not significant. The modified […]
where s is the scatter correction factor for a given concentration of native membranes, If W and IfM are respectively the fluorescence intensity when all fluorescent amphiphile is in the aqueous phase and associated with the membranes, WMK → is the partition coefficient between the P aqueous phase and the native membrane, V is the molar volume of the lipid when in the L membrane and [L] the molar concentration of the membrane lipids, V is the vo lume occupied P by 1 g of membrane protein (assuming a density of 1.2 g/mL) and [P] is the protein concentration in units of ma ss per volume.
Typical results obtained for the variation of the fluorescence intensity at 540 nm of the NBD‐Cn fluorophores equilibrated with increasing concentrations of native membranes, are shown in figure S3. The fluorescence intensity was measured in black 96 well plates with the plate reader […]
SpectraMax iD5. The NBD‐Cn concentrations we re 0.5 µM for NBD‐C8 , 1 µM for NBD‐C6, and 2 µM for NBD‐C4, and the total volume per well was 150 µL. […]

mouse P–gp (mP–gp) = target: T1, mouse P–gp (mP–gp) (Mus musculus, UniProt P21447); experiment: P–gp ATPase activity (vanadate-sensitive, end point Pi release) in native membranes; type: biochemical; conditions: Equation (S1), total modulator concentration; only activation for NBD–C4; constraint K1≤K2 for NBD–C8 and NBD–LysoMPE; [75% confidence interval]; read-out: K1, dissociation constant for P–gp activation
T1 construct: made in house; host or cells: High-Five insect cells (Invitrogen), recombinant baculovirus; total membrane vesicles

[2] = cited from earlier work; for critical aggregation concentration (CAC): 25 °C, aqueous; for increase of CAC in the presence of co-solvent: e.g. 1 M trehalose
[3] = membrane volume = phospholipid bilayer and P–gp (binding to the protein P–gp only)
[4] = membrane volume = phospholipid bilayer and all proteins (binding to all membrane proteins with equal affinity)

T1 sequence (P21447 whole entry): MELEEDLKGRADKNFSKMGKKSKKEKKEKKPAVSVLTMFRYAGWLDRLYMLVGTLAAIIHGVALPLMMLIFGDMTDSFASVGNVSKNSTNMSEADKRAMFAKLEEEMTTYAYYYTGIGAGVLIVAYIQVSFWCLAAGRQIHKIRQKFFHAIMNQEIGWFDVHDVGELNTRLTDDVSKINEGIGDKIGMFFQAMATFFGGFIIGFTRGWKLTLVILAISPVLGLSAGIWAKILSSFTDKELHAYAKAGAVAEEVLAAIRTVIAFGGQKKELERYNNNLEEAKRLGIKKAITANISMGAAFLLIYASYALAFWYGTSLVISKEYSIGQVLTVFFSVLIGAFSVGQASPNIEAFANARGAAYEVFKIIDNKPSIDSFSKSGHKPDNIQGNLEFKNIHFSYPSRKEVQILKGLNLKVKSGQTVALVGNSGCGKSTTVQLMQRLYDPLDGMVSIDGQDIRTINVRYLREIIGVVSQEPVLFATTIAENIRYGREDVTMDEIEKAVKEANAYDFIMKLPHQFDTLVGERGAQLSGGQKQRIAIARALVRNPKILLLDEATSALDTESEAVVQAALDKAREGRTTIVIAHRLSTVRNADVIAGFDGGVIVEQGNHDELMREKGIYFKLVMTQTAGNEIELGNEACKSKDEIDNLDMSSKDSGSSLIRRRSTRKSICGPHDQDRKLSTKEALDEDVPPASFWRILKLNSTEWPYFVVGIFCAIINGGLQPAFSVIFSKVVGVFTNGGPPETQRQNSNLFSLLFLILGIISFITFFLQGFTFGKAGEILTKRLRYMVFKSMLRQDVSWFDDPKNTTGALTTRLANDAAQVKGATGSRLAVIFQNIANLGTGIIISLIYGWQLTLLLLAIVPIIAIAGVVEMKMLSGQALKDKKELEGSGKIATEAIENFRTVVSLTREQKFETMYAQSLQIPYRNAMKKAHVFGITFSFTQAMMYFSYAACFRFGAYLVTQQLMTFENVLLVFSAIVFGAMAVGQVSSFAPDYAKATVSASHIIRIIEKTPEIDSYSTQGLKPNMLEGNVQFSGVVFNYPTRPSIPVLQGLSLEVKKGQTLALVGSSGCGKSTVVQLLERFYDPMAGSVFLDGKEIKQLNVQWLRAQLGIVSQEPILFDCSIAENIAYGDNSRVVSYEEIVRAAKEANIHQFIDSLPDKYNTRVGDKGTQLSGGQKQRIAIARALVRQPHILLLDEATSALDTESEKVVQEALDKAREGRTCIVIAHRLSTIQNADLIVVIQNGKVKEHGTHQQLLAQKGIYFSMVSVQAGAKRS

| SMILES | LogKP, association with the native membranes [1] | KPW→M [1, 3] | KPW→M [1, 4] | Kd (mouse P–gp (mP–gp)) | critical aggregation concentration (CAC) [2] | increase of CAC in the presence of co-solvent [2] |
| --- | --- | --- | --- | --- | --- | --- |
| CCCCNc1ccc([N+](=O)[O-])c2nonc12 [NBD–C4] | 2.75 ± 0.20 | 1.4 × 10^3 | 5.7 × 10^2 | 84 µM | 250 µM | not significantly affected |
| CCCCCCCCNc1ccc([N+](=O)[O-])c2nonc12 [NBD–C8] | 3.95 ± 0.14 | 2.2 × 10^4 | 9.0 × 10^3 | 17 µM | 1 µM | 4 fold |
| CCCCCCCCCCCCCC(=O)OCC(O)COP(=O)(O)OCCNc1ccc([N+](=O)[O-])c2nonc12 (stereo not drawn) [NBD–LysoMPE] | 4.34 ± 0.25 | – | – | 13 µM | 4 µM | – |
